In brackets after ≈: the same amount, converted by molar mass.
What was measured:
[1] = test system: Enterococcus faecium; assay: Antimicrobial activity against Enterococcus faecium isolate 2 from skin lesion of patient by Etest; type: functional
[2] = test system: Enterococcus faecium; assay: Antimicrobial activity against Enterococcus faecium isolate 3 from abdominal wound of patient by Etest; type: functional
[3] = test system: Enterococcus faecium; assay: Antimicrobial activity against Enterococcus faecium isolate 4 from lower extremity wound of patient by Etest; type: functional
[4] = test system: Enterococcus faecium; assay: Antimicrobial activity against Enterococcus faecium isolate 5 from patient blood by Etest; type: functional
[5] = test system: Enterococcus faecium; assay: Antimicrobial activity against Enterococcus faecium isolate 6 from thigh wound of patient by Etest; type: functional; conditions: isolate 6, Thigh muscle
[6] = test system: Enterococcus faecium; assay: Antimicrobial activity against Enterococcus faecium isolate 1 from right groin wound of patient by Etest; type: functional
[7] = test system: Enterococcus faecium; assay: Antimicrobial activity against Enterococcus faecium ATCC 35667 by Etest; type: functional
[8] = test system: Staphylococcus aureus; assay: microbe, parasite or virus in culture; conditions: ATCC 29213
Description: Antimicrobial activity against Staphylococcus aureus ATCC 29213 by Etest

[9] = test system: Enterococcus faecium; assay: Antimicrobial activity against Enterococcus faecium isolate 7 from abdominal wound of patient by Etest
[10] = test system: Enterococcus faecium; assay: Antimicrobial activity against Enterococcus faecium isolate 8 from right abdominal wound of patient by Etest

SMILES	MIC [1]	MIC [2]	MIC [3]	MIC [4]	MIC [5]	MIC [6]	MIC [7]	MIC [8]	MIC [9]	MIC [10]
CCCCCCCCCC(=O)N[C@@H](Cc1c[nH]c2ccccc12)C(=O)N[C@H](CC(N)=O)C(=O)N[C@@H](CC(=O)O)C(=O)N[C@@H]1C(=O)NCC(=O)N[C@@H](CCCN)C(=O)N[C@@H](CC(=O)O)C(=O)N[C@H](C)C(=O)N[C@@H](CC(=O)O)C(=O)NCC(=O)N[C@H](CO)C(=O)N[C@@H]([C@H](C)CC(=O)O)C(=O)N[C@@H](CC(=O)c2ccccc2N)C(=O)O[C@@H]1C	4 µg/mL (≈ 2.47 µM)	16 µg/mL (≈ 9.87 µM)	16 µg/mL (≈ 9.87 µM)	8 µg/mL (≈ 4.94 µM)	16 µg/mL (≈ 9.87 µM)	4 µg/mL (≈ 2.47 µM)	1 µg/mL (≈ 0.617 µM)	0.25 µg/mL (≈ 0.154 µM)	> 16 µg/mL	16 µg/mL (≈ 9.87 µM)
CN[C@H](CC(C)C)C(=O)N[C@H]1C(=O)N[C@@H](CC(N)=O)C(=O)N[C@H]2C(=O)N[C@H]3C(=O)N[C@H](C(=O)N[C@H](C(=O)O)c4cc(O)cc(O)c4-c4cc3ccc4O)[C@H](O)c3ccc(c(Cl)c3)Oc3cc2cc(c3O[C@@H]2O[C@H](CO)[C@@H](O)[C@H](O)[C@H]2O[C@H]2C[C@](C)(N)[C@H](O)[C@H](C)O2)Oc2ccc(cc2Cl)[C@H]1O [VANCOMYCIN]	< 2 µg/mL	< 2 µg/mL	> 16 µg/mL	> 16 µg/mL	> 16 µg/mL	< 2 µg/mL	–	–	> 16 µg/mL	> 16 µg/mL

Reference: ChEMBL document CHEMBL1255266, “Mechanisms of resistance to daptomycin in Enterococcus faecium” (2008)
